Assay results: patent EP0293814A1, “Mono- and polyhydroxyacyl derivatives of polyoxygenated labdanes, a process for their production and their use as drugs” (HOECHST AKTIENGESELLSCHAFT, priority 1987, dated 1988)

Assay: Lowering of intraocular pressure, Schiotz tonometry
Format: in vivo
Source text: Die Labdane der vorliegenden Anmeldung eignen sich zur Behandlung des erhöhten Augeninnendrucks, weil sie, wie mit der Schiotz-Tonometrie nachgewiesen, die Eigenschaft besitzen, den Augeninnendruck herabzusetzen (s. Capriol. J., Sears, M., Lancet, 1, (1983) 958 - 96).
Die Wirksamkeit einiger repräsentativer Verbindungen gemäß der Erfindung ist als prozentuale Senkung des Augeninnendrucks ausgedrückt und in Tab. 2 dargestellt.

C=C[C@@]1(C)CC(=O)[C@]2(O)[C@@]3(C)[C@@H](O)CCC(C)(C)[C@@H]3[C@H](O)[C@H](OC(=O)COCC)[C@@]2(C)O1 [compound 1]
Senkung des Augeninnendrucks (%) (Konzentration 2 %): 31%

C=C[C@@]1(C)CC(=O)[C@]2(O)[C@@]3(C)[C@@H](O)CCC(C)(C)[C@@H]3[C@H](OC(=O)COCC)[C@H](O)[C@@]2(C)O1 [compound 2]
Senkung des Augeninnendrucks (%) (Konzentration 2 %): 20%

C=C[C@@]1(C)CC(=O)[C@]2(O)[C@@]3(C)[C@@H](O)CCC(C)(C)[C@@H]3[C@H](O)[C@H](OC(=O)[C@H](O)CO)[C@@]2(C)O1 [compound 7]
Senkung des Augeninnendrucks (%) (Konzentration 0,1 %): 17% | Senkung des Augeninnendrucks (%) (Konzentration 0,5 %): 25% | Senkung des Augeninnendrucks (%) (Konzentration 0,25 %): 24% | Senkung des Augeninnendrucks (%) (Konzentration 2 %): 27% | Erniedrigung des Augeninnendrucks (in words, compared with the other substances of the invention (Tab. 2)): wesentlich besser erniedrigt als die anderen Substanzen der Erfindung

C=C[C@@]1(C)CC(=O)[C@]2(O)[C@@]3(C)[C@@H](OC(=O)COC=O)CCC(C)(C)[C@@H]3[C@H](O)[C@H](OC(=O)COC=O)[C@@]2(C)O1 [compound 5]
Senkung des Augeninnendrucks (%) (Konzentration 2 %): 26%
